According to ChEMBL document CHEMBL2040786, “Click chemistry-derived bivalent quinine inhibitors of P-glycoprotein-mediated cellular efflux” (Bioorg Med Chem Lett, 2012):

These compounds were tested against T1, ATP-dependent translocase ABCB1 (Homo sapiens, UniProt P08183) (assay: Inhibition of p-glycoprotein expressed in human MCF-7/DX1 cells assessed as accumulation of calcein-AM by FACS analysis).
T1 sequence (P08183 whole entry): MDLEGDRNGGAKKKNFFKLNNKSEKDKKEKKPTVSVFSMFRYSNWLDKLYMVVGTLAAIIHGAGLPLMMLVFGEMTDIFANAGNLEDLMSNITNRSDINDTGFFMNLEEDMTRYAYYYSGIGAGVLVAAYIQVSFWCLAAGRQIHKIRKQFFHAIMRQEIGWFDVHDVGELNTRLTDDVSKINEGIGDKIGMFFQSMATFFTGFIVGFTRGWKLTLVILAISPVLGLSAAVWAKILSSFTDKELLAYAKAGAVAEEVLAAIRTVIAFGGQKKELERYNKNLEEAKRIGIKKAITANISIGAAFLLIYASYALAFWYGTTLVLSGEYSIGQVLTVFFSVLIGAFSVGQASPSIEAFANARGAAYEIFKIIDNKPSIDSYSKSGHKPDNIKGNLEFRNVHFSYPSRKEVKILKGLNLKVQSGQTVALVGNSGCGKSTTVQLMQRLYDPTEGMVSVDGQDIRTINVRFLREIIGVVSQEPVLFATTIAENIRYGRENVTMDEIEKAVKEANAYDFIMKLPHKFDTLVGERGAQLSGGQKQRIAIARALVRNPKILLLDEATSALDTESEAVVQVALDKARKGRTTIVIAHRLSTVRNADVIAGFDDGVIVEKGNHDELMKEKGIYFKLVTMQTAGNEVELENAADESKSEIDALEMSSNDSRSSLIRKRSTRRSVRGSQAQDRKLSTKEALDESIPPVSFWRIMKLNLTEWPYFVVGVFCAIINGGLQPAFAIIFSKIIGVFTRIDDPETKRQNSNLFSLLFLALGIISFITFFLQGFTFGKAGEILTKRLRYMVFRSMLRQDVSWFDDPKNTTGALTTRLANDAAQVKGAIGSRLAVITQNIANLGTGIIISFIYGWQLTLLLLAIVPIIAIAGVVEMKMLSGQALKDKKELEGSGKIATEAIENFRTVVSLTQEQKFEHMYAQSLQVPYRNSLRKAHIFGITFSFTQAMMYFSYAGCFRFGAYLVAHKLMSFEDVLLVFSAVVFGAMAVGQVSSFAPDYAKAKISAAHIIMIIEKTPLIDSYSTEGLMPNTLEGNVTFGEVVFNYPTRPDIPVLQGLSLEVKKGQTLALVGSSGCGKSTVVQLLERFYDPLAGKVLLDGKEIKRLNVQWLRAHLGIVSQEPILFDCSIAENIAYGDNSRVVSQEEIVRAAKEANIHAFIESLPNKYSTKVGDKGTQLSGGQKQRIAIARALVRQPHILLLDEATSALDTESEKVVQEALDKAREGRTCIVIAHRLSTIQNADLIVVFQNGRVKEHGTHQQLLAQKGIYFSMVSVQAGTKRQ
Assay type: cell-based; call rule not given here
With `C=C[C@H]1CN2CC[C@H]1C[C@H]2[C@H](OC(=O)CCCCCCc1cn(CCCCCCC(=O)O[C@H](c2ccnc3ccc(OC)cc23)[C@@H]2C[C@@H]3CCN2C[C@@H]3C=C)nn1)c1ccnc2ccc(OC)cc12` the IC50 was 2.7 µM.
In the case of `C=C[C@H]1CN2CC[C@H]1C[C@H]2[C@H](OC(=O)CCCCn1cc(CCC(=O)O[C@H](c2ccnc3ccc(OC)cc23)[C@@H]2C[C@@H]3CCN2C[C@@H]3C=C)nn1)c1ccnc2ccc(OC)cc12`, the IC50 is reported as 6.2 µM.
Compound `C=C[C@H]1CN2CC[C@H]1C[C@H]2[C@H](OC(=O)CCCCc1cn(CCCCC(=O)O[C@H](c2ccnc3ccc(OC)cc23)[C@@H]2C[C@@H]3CCN2C[C@@H]3C=C)nn1)c1ccnc2ccc(OC)cc12` has an IC50 of 4.6 µM.
With `C=C[C@H]1CN2CC[C@H]1C[C@H]2[C@H](OC(=O)CCCCCCCCc1cn(CCCCCCCCC(=O)O[C@H](c2ccnc3ccc(OC)cc23)[C@@H]2C[C@@H]3CCN2C[C@@H]3C=C)nn1)c1ccnc2ccc(OC)cc12` the IC50 was 4.5 µM.
`C=C[C@H]1CN2CC[C@H]1C[C@H]2[C@H](OC(=O)CCCCCCc1cn(CCCCC(=O)O[C@H](c2ccnc3ccc(OC)cc23)[C@@H]2C[C@@H]3CCN2C[C@@H]3C=C)nn1)c1ccnc2ccc(OC)cc12` gave an IC50 of 2.8 µM.
Work on `C=C[C@H]1CN2CC[C@H]1C[C@H]2[C@H](OC(=O)CCCCCCn1cc(CCC(=O)O[C@H](c2ccnc3ccc(OC)cc23)[C@@H]2C[C@@H]3CCN2C[C@@H]3C=C)nn1)c1ccnc2ccc(OC)cc12` yielded an IC50 of 3.6 µM.
In the case of `C=C[C@H]1CN2CC[C@H]1C[C@H]2[C@H](OC(=O)CCc1cn(CCC(=O)O[C@H](c2ccnc3ccc(OC)cc23)[C@@H]2C[C@@H]3CCN2C[C@@H]3C=C)nn1)c1ccnc2ccc(OC)cc12`, the IC50 is reported as 6.1 µM.
`C=C[C@H]1CN2CC[C@H]1C[C@H]2[C@H](OC(=O)CCCCCCn1cc(CCCCC(=O)O[C@H](c2ccnc3ccc(OC)cc23)[C@@H]2C[C@@H]3CCN2C[C@@H]3C=C)nn1)c1ccnc2ccc(OC)cc12` showed an IC50 of 2.9 µM.

Each compound was assayed against T1, ATP-dependent translocase ABCB1 (assay: Inhibition of p-glycoprotein expressed in human MCF-7/DX1 cells assessed as accumulation of calcein-AM at 1 uM by FACS analysis).
Assay type: cell-based
In the case of `C=C[C@H]1CN2CC[C@H]1C[C@H]2[C@H](OC(=O)CCCCCCc1cn(CCCCCCC(=O)O[C@H](c2ccnc3ccc(OC)cc23)[C@@H]2C[C@@H]3CCN2C[C@@H]3C=C)nn1)c1ccnc2ccc(OC)cc12`, the “inhibition (INH)” value is reported as “Active”.
